In patent publication US11555212B2, “Process for the production of sulfated phenolic compounds using modified Escerichia coli” (CysBio ApS, priority 2016, dated 2023):

How the values were obtained:
[1] = biological target: T1, SULT1A1 human (Homo sapiens, UniProt P50225, V223M); experiment: pHCA and zosteric acid in culture media of E. coli expressing an aryl sulfotransferase in combination with cysDNC and cysQ; assay type: cell-based; settings: Enzymes: SULT1A1 Homo sapiens, grown as in Example 1 (0.1 mM pHCA)
T1 construct: expressed in transfected cells; host or cells: E. coli BL21(DE3)pLysS
T1 sequence (P50225 whole entry V223M): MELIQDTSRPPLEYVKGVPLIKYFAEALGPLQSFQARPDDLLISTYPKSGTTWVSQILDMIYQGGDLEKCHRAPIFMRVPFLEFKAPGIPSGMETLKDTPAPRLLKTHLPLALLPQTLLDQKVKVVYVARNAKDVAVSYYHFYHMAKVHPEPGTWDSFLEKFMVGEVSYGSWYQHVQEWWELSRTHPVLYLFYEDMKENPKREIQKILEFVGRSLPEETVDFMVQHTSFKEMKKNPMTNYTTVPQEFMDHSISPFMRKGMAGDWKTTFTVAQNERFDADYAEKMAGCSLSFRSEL
Description: The strains were grown in M9 minimal media containing glucose as a carbon source, and 0.1 mM IPTG for induction of gene expression as well as 0.1 mM p-coumaric acid (pHCA). After four days of growth, samples were withdrawn by filtration and analyzed by HPLC.
(§1) The concentration of p-courmaric acid (pHCA) and zosteric acid in the supernatant was quantified by high performance liquid chromatography (HPLC) and compared to chemical standards. HPLC was done on a Thermo setup using a HS-F5 column and mobile phases: 5 mM ammonium formate pH 4.0 (A) and acetonitrile (B) at 1.5 mL min-1, using a gradient elution starting at 5% B. From 0.5 min after injection to 7 min, the fraction of B increased linearly from 5% to 60%, and between 9.5 min and 9.6 the fraction of B decreased back to 5%, and remaining there until 12 min. pHCA and zosteric acid were quantified by measuring absorbance at 277 nm.
The addition of sulfated groups to targets is dependent on supply of the donor molecule 3′-Phosphoadenosine 5′-phosphosulfate (PAPS). We examined if we could increase the production of zosteric acid by overexpressing enzymes providing PAPS and an enzyme that removes the product 3′-Phosphoadenosine 5′-phosphate (PAP).
In E. coli, the genes cysD and cysN encode the two subunits of ATP sulfurylase (EC:2.7.7.4), cysC encodes APS kinase (EC:2.7.1.25), and cysQ encode a PAP phosphatase.
The plasmid pRSFDuet-1 (Life Technologies) was digested by the restriction endonucleases NdeI and BgIII. The gene cluster was inserted into the digested plasmid using the Gibson reaction (New England Biolabs). […] For the combined expression of cysDNC and cysQ in an artificial operon, cysDNCQ, the two parts were amplified by PCR from E. coli MG1655 chromosomal DNA using the primers shown in Table 3. Again the parts were inserted into the digested plasmid. […] The plasmid expressing SULT1A1 Homo sapiens (SEQ ID NO: 2) from example 1 was co-transformed into E. coli BL21(DE3)pLysS cells (Life Technologies) with either the plasmid expressing cysDNC or cysDNCQ.
Cells were grown as in Example 1 and the supernatants were analyzed for product formation as in example 1. The strain expressing SULT1A1 in combination with cysDNCQ was also grown without the addition of IPTIG for induction.

[2] = biological target: T1, SULT1A1 human; experiment: pHCA and zosteric acid in culture media of E. coli expressing an aryl sulfotransferase in combination with a tyrosine ammonia lyase; assay type: cell-based; settings: E. coli BL21(DE3)pLysS expressing SULT1A1 Homo sapiens and RmXAL, M9 glucose, 0.1 mM IPTG, no substrate added
Description: as §1
The enzyme RmXAL from Rhodotorula mucilaginosa/Rhodotorula rubra (SEQ ID NO: 46) has tyrosine ammonia lyase activity, thus catalyzing the non-oxidative deamination of the amino acid tyrosine, releasing p-coumaric acid (pHCA) and ammonia. The gene encoding RmXAL was codon optimized using standard algorithms for expression in E. coli available by GeneArt (Life Technologies) and amplified by PCR using the primers shown in Table 5 and inserted into the pCDFDuet-1 vector (Novagen/Life Technologies), which had been digested by the restriction enzymes NdeI and BgIII, using Gibson reaction (New England Biolabs). […]

[3] = biological target: T2, RsTAL (Cereibacter sphaeroides, UniProt Q3IWB0); experiment: Titers of pHCA and zosteric acid, E. coli co-expressing tyrosine ammonia-lyase and SULT1A1 rat; assay type: cell-based, Rhodobacter sphaeroides; settings: E. coli BL21(DE3) with SULT1A1 rat and RsTAL; M9, 0.2% glucose, 2 mM tyrosine, 1 mM IPTG; overnight 37° C.; supernatant
T2 construct: were optimized for E. coli and synthesized by GeneArt, amplified by PCR; expressed in transfected cells; host or cells: E. coli BL21(DE3), plasmid pCBJ215
T2 sequence (Q3IWB0 whole entry Q21E/A24S/I74V/S113A/S143M/R238G/D285G/G287S): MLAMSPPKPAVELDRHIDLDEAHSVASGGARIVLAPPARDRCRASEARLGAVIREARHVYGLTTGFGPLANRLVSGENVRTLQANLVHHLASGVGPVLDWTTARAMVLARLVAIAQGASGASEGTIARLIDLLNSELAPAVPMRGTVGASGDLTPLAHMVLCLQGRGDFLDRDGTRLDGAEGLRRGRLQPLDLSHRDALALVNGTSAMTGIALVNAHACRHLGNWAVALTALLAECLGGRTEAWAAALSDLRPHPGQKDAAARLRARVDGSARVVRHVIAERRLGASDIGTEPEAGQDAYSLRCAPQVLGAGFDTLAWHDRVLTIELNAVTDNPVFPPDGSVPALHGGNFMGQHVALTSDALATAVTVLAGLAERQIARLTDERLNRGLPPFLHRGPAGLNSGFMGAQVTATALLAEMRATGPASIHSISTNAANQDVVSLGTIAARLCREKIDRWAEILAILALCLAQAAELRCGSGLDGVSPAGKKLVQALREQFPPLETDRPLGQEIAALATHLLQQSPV
Description: as §1
The genes encoding the tyrosine ammonia-lyases RcTAL (from Rhodobacter capsulatus; SEQ ID NO: 50), RsTAL (from Rhodobacter sphaeroides; SEQ ID NO: 43) and FjTAL (from Flavobacterium johnsoniae; SEQ ID NO: 40) were cloned into expression vectors as follows. […]
Strains harboring recombinant plasmids were pre-cultured in 2×YT liquid medium with 100 μg mL^−1 ampicillin and 50 μg mL^−1 spectinomycin and incubated at 37° C. and 250 rpm overnight. […] The supernatants were then collected by centrifugation twice and applied to HPLC analysis as described in example 1, and the titers of p-coumaric acid (pHCA) and zosteric acid (ZA) were quantified using chemical standards and are presented in the table below.

| Compound | pHCA remaining ([1]; CysDNC, induction 0.1 mM IPTG) | pHCA remaining ([1]; CysDNCQ, induction 0.1 mM IPTG) | pHCA remaining ([1]; CysDNCQ, induction None) | pHCA remaining ([1]; induction 0.1 mM IPTG) | pHCA [2] | Titer of p-coumaric acid (pHCA) [3] | Zosteric acid formed ([1]; CysDNC, induction 0.1 mM IPTG) | Zosteric acid formed ([1]; CysDNCQ, induction 0.1 mM IPTG) | Zosteric acid formed ([1]; induction 0.1 mM IPTG) | Zosteric acid formed [2] | Titer of zosteric acid (ZA) [3] |
| --- | --- | --- | --- | --- | --- | --- | --- | --- | --- | --- | --- |
| O=C(O)/C=C/c1ccc(O)cc1 [pHCA, p-coumaric acid] | 0.06 mM | 0.04 mM | 0.10 mM | 0.08 mM | 0.02 mM | 78 μM | – | – | – | – | – |
| O=C(O)/C=C/c1ccc(OS(=O)(=O)O)cc1 [Zosteric acid, zosteric acid] | – | – | – | – | – | – | 0.06 mM | 0.09 mM | 0.02 mM | 0.01 mM | <1 µM |
